ChEMBL document CHEMBL3526037, “Evaluation of the relationship between sex, polymorphisms in CYP2C8 and CYP2C9, and pharmacokinetics of angiotensin receptor blockers” (Drug Metab Dispos, 2013)
One block for each compound: values may come before it.

Key:
Format in all cases: ADME, organism-based
[1] = Cmax in men plasma treated with losartan at 50 mg by LC/MS/MS analysis; design: dose 50 mg; settings: male, human
[2] = Half life in human plasma expressing CYP2C9*1/*1 polymorphism treated with losartan at 50 mg by LC/MS/MS analysis
[3] = Half life in human plasma expressing CYP2C8*4 allele carrier polymorphism treated with losartan at 50 mg by LC/MS/MS analysis
[4] = Tmax in human plasma expressing CYP2C9*3 allele carrier polymorphism treated with losartan at 50 mg by LC/MS/MS analysis
[5] = AUC in human plasma expressing CYP2C9*3 allele carrier polymorphism treated with losartan at 50 mg by LC/MS/MS analysis
[6] = Half life in women plasma treated with losartan at 50 mg by LC/MS/MS analysis; settings: female, human
[7] = Tmax in women plasma treated with losartan at 50 mg by LC/MS/MS analysis; settings: female, human
[8] = Cmax in human plasma expressing CYP2C8*1/*1 polymorphism treated with losartan at 50 mg by LC/MS/MS analysis; design: dose 50 mg
[9] = Cmax in human plasma expressing CYP2C9*3 allele carrier polymorphism treated with losartan at 50 mg by LC/MS/MS analysis; design: dose 50 mg
[10] = AUC in human plasma expressing CYP2C9*1/*1 polymorphism treated with losartan at 50 mg by LC/MS/MS analysis
[11] = Half life in human plasma expressing CYP2C9*3 allele carrier polymorphism treated with losartan at 50 mg by LC/MS/MS analysis
[12] = AUC in human plasma expressing CYP2C8*3 allele carrier polymorphism treated with losartan at 50 mg by LC/MS/MS analysis
[13] = Tmax in human plasma expressing CYP2C9*2 allele carrier polymorphism treated with losartan at 50 mg by LC/MS/MS analysis
[14] = Cmax in human plasma expressing CYP2C9*1/*1 polymorphism treated with losartan at 50 mg by LC/MS/MS analysis; design: dose 50 mg
[15] = Tmax in human plasma expressing CYP2C8*4 allele carrier polymorphism treated with losartan at 50 mg by LC/MS/MS analysis
[16] = Cmax in human plasma expressing CYP2C8*4 allele carrier polymorphism treated with losartan at 50 mg by LC/MS/MS analysis; design: dose 50 mg
[17] = Tmax in human plasma expressing CYP2C8*1/*1 polymorphism treated with losartan at 50 mg by LC/MS/MS analysis
[18] = Cmax in human plasma expressing CYP2C8*3 allele carrier polymorphism treated with losartan at 50 mg by LC/MS/MS analysis; design: dose 50 mg
[19] = Tmax in human plasma expressing CYP2C8*3 allele carrier polymorphism treated with losartan at 50 mg by LC/MS/MS analysis
[20] = Half life in human plasma expressing CYP2C9*2 allele carrier polymorphism treated with losartan at 50 mg by LC/MS/MS analysis
[21] = Tmax in men plasma treated with losartan at 50 mg by LC/MS/MS analysis; settings: male, human
[22] = Half life in men plasma treated with losartan at 50 mg by LC/MS/MS analysis; settings: male, human
[23] = Half life in human plasma expressing CYP2C8*1/*1 polymorphism treated with losartan at 50 mg by LC/MS/MS analysis
[24] = AUC in human plasma expressing CYP2C8*1/*1 polymorphism treated with losartan at 50 mg by LC/MS/MS analysis
[25] = Tmax in human plasma expressing CYP2C9*1/*1 polymorphism treated with losartan at 50 mg by LC/MS/MS analysis
[26] = AUC in men plasma treated with losartan at 50 mg by LC/MS/MS analysis; settings: male, human
[27] = AUC in human plasma expressing CYP2C9*2 allele carrier polymorphism treated with losartan at 50 mg by LC/MS/MS analysis
[28] = AUC in human plasma expressing CYP2C8*4 allele carrier polymorphism treated with losartan at 50 mg by LC/MS/MS analysis
[29] = Cmax in human plasma expressing CYP2C9*2 allele carrier polymorphism treated with losartan at 50 mg by LC/MS/MS analysis; design: dose 50 mg
[30] = Half life in human plasma expressing CYP2C8*3 allele carrier polymorphism treated with losartan at 50 mg by LC/MS/MS analysis
[31] = Cmax in women plasma treated with losartan at 50 mg by LC/MS/MS analysis; design: dose 50 mg; settings: female, human
[32] = AUC in women plasma treated with losartan at 50 mg by LC/MS/MS analysis; settings: female, human
[33] = Clearance in women plasma at 25 to 32 mg by LC/MS/MS analysis; settings: female, human
[34] = Cmax in human plasma expressing CYP2C8*4 allele carrier polymorphism at 25 to 32 mg by LC/MS/MS analysis
[35] = AUC in human plasma expressing CYP2C8*2 allele carrier polymorphism at 25 to 32 mg by LC/MS/MS analysis
[36] = AUC in human plasma expressing CYP2C8*1/*1 polymorphism at 25 to 32 mg by LC/MS/MS analysis
[37] = Half life in human plasma expressing CYP2C8*4 allele carrier polymorphism at 25 to 32 mg by LC/MS/MS analysis
[38] = Cmax in human plasma expressing CYP2C9*3 allele carrier polymorphism at 25 to 32 mg by LC/MS/MS analysis
[39] = Half life in human plasma expressing CYP2C9*2 allele carrier polymorphism at 25 to 32 mg by LC/MS/MS analysis
[40] = AUC in human plasma expressing CYP2C9*1/*1 polymorphism at 25 to 32 mg by LC/MS/MS analysis
[41] = Tmax in human plasma expressing CYP2C8*4 allele carrier polymorphism at 25 to 32 mg by LC/MS/MS analysis
[42] = AUC in women plasma at 25 to 32 mg by LC/MS/MS analysis; settings: female, human
[43] = Clearance in human plasma expressing CYP2C8*1/*1 polymorphism at 25 to 32 mg by LC/MS/MS analysis
[44] = Half life in human plasma expressing CYP2C8*3 allele carrier polymorphism at 25 to 32 mg by LC/MS/MS analysis
[45] = Tmax in human plasma expressing CYP2C8*3 allele carrier polymorphism at 25 to 32 mg by LC/MS/MS analysis
[46] = Cmax in human plasma expressing CYP2C8*3 allele carrier polymorphism at 25 to 32 mg by LC/MS/MS analysis
[47] = Half life in human plasma expressing CYP2C9*3 allele carrier polymorphism at 25 to 32 mg by LC/MS/MS analysis
[48] = Cmax in human plasma expressing CYP2C8*1/*1 polymorphism at 25 to 32 mg by LC/MS/MS analysis
[49] = Clearance in human plasma expressing CYP2C9*2 allele carrier polymorphism at 25 to 32 mg by LC/MS/MS analysis
[50] = Tmax in human plasma expressing CYP2C9*3 allele carrier polymorphism at 25 to 32 mg by LC/MS/MS analysis
[51] = Half life in women plasma at 25 to 32 mg by LC/MS/MS analysis; settings: female, human
[52] = Tmax in men plasma at 25 to 32 mg by LC/MS/MS analysis; settings: male, human
[53] = Clearance in human plasma expressing CYP2C9*1/*1 polymorphism at 25 to 32 mg by LC/MS/MS analysis
[54] = Cmax in human plasma expressing CYP2C9*2 allele carrier polymorphism at 25 to 32 mg by LC/MS/MS analysis
[55] = Half life in men plasma at 25 to 32 mg by LC/MS/MS analysis; settings: male, human
[56] = AUC in men plasma at 25 to 32 mg by LC/MS/MS analysis; settings: male, human
[57] = Cmax in human plasma expressing CYP2C8*2 allele carrier polymorphism at 25 to 32 mg by LC/MS/MS analysis
[58] = AUC in human plasma expressing CYP2C9*2 allele carrier polymorphism at 25 to 32 mg by LC/MS/MS analysis
[59] = Tmax in human plasma expressing CYP2C8*1/*1 polymorphism at 25 to 32 mg by LC/MS/MS analysis
[60] = Clearance in human plasma expressing CYP2C8*3 allele carrier polymorphism at 25 to 32 mg by LC/MS/MS analysis
[61] = Cmax in men plasma at 25 to 32 mg by LC/MS/MS analysis; settings: male, human
[62] = Clearance in human plasma expressing CYP2C8*4 allele carrier polymorphism at 25 to 32 mg by LC/MS/MS analysis
[63] = Clearance in men plasma at 25 to 32 mg by LC/MS/MS analysis; settings: male, human
[64] = Clearance in human plasma expressing CYP2C8*2 allele carrier polymorphism at 25 to 32 mg by LC/MS/MS analysis
[65] = Half life in human plasma expressing CYP2C9*1/*1 polymorphism at 25 to 32 mg by LC/MS/MS analysis
[66] = Clearance in human plasma expressing CYP2C9*3 allele carrier polymorphism at 25 to 32 mg by LC/MS/MS analysis
[67] = Half life in human plasma expressing CYP2C8*1/*1 polymorphism at 25 to 32 mg by LC/MS/MS analysis
[68] = Cmax in women plasma at 25 to 32 mg by LC/MS/MS analysis; settings: female, human
[69] = AUC in human plasma expressing CYP2C9*3 allele carrier polymorphism at 25 to 32 mg by LC/MS/MS analysis
[70] = Tmax in human plasma expressing CYP2C8*2 allele carrier polymorphism at 25 to 32 mg by LC/MS/MS analysis
[71] = Cmax in human plasma expressing CYP2C9*1/*1 polymorphism at 25 to 32 mg by LC/MS/MS analysis
[72] = Half life in human plasma expressing CYP2C8*2 allele carrier polymorphism at 25 to 32 mg by LC/MS/MS analysis
[73] = AUC in human plasma expressing CYP2C8*3 allele carrier polymorphism at 25 to 32 mg by LC/MS/MS analysis
[74] = AUC in human plasma expressing CYP2C8*4 allele carrier polymorphism at 25 to 32 mg by LC/MS/MS analysis
[75] = Tmax in human plasma expressing CYP2C9*2 allele carrier polymorphism at 25 to 32 mg by LC/MS/MS analysis
[76] = Tmax in women plasma at 25 to 32 mg by LC/MS/MS analysis; settings: female, human
[77] = Tmax in human plasma expressing CYP2C9*1/*1 polymorphism at 25 to 32 mg by LC/MS/MS analysis

Cmax [1]: 209 ng/mL
half-life [2]: 4.6 h
half-life [3]: 4.6 h
Tmax [4]: 4.3 h
AUC [5]: 2860 ng·h/mL
half-life [6]: 4.8 h
Tmax [7]: 3.7 h
Cmax [8]: 249 ng/mL
Cmax [9]: 154 ng/mL
AUC [10]: 2140 ng·h/mL
half-life [11]: 5.7 h
AUC [12]: 1500 ng·h/mL
Tmax [13]: 3.5 h
Cmax [14]: 292 ng/mL
Tmax [15]: 2.8 h
Cmax [16]: 382 ng/mL
Tmax [17]: 3.9 h
Cmax [18]: 196 ng/mL
Tmax [19]: 3.7 h
half-life [20]: 4.9 h
Tmax [21]: 3.7 h
half-life [22]: 4.9 h
half-life [23]: 4.8 h
AUC [24]: 2330 ng·h/mL
Tmax [25]: 3.7 h
AUC [26]: 1810 ng·h/mL
AUC [27]: 1770 ng·h/mL
AUC [28]: 2270 ng·h/mL
Cmax [29]: 224 ng/mL
half-life [30]: 5.1 h
Cmax [31]: 301 ng/mL
AUC [32]: 2580 ng·h/mL
SMILES: CCCCc1nc(Cl)c(C(=O)O)n1Cc1ccc(-c2ccccc2-c2nn[nH]n2)cc1 [CARBOXYLIC ACID METABOLITE]

clearance [33]: 2.5 mL/min/kg
Cmax [34]: 287 ng/mL
AUC [35]: 3580 ng·h/mL
AUC [36]: 3510 ng·h/mL
half-life [37]: 11.2 h
Cmax [38]: 230 ng/mL
half-life [39]: 12.8 h
AUC [40]: 3590 ng·h/mL
Tmax [41]: 4.1 h
AUC [42]: 3810 ng·h/mL
clearance [43]: 2.5 mL/min/kg
half-life [44]: 12 h
Tmax [45]: 5.1 h
Cmax [46]: 214 ng/mL
half-life [47]: 12.1 h
Cmax [48]: 242 ng/mL
clearance [49]: 2.5 mL/min/kg
Tmax [50]: 5 h
half-life [51]: 12.1 h
Tmax [52]: 5.1 h
clearance [53]: 2.33 mL/min/kg
Cmax [54]: 217 ng/mL
half-life [55]: 11.3 h
AUC [56]: 3260 ng·h/mL
Cmax [57]: 289 ng/mL
AUC [58]: 3450 ng·h/mL
Tmax [59]: 5.2 h
clearance [60]: 2.67 mL/min/kg
Cmax [61]: 216 ng/mL
clearance [62]: 2.17 mL/min/kg
clearance [63]: 2.33 mL/min/kg
clearance [64]: 2.5 mL/min/kg
half-life [65]: 10.9 h
clearance [66]: 2.5 mL/min/kg
half-life [67]: 11.7 h
Cmax [68]: 260 ng/mL
AUC [69]: 3630 ng·h/mL
Tmax [70]: 3.4 h
Cmax [71]: 258 ng/mL
half-life [72]: 10.7 h
AUC [73]: 3450 ng·h/mL
AUC [74]: 4130 ng·h/mL
Tmax [75]: 4.8 h
Tmax [76]: 4.9 h
Tmax [77]: 5.1 h
SMILES: CCOc1nc2cccc(C(=O)O)c2n1Cc1ccc(-c2ccccc2-c2nnn[nH]2)cc1
